According to paper PMC11866022, “Long-Chain Cyclic Arylguanidines as Multifunctional Serotonin Receptor Ligands with Antiproliferative Activity” (ACS Omega, 2025):

Assays:
5-HT6 = biological target: T1, 5-HT6 (Homo sapiens, UniProt P50406); assay: Functional cAMP assay (LANCE Ultra), 5-HT6; assay type: cell-based; conditions: Table 3, unit inferred, agonist mode
T1 construct: expressed in transfected cells; host or cells: HEK293

D2 = biological target: T2, D2 (Homo sapiens, UniProt P14416); assay: Functional cAMP assay (LANCE Ultra), D2; assay type: cell-based; conditions: Table 3, unit inferred, antagonist mode, 10 nM dopamine
T2 construct: expressed in transfected cells; host or cells: HEK293
Description: (§1) Their functional activity was also evaluated by assessing their ability to inhibit agonist-induced cAMP production in HEK293 cells (Table 3). Extended radioisotope tests were aimed at detecting potential affinity for other aminergic receptors, whose role in cancer treatment may be important. Functions were tested for all receptors. The essence of functional tests results from the fact that serotonin stimulates tumor progression. Therefore, the ligand should have the potential to reduce its concentration, i.e., act as an antagonist.[39]
(§2) The detailed procedure is presented in previous publications.[53] The functional activity of the compounds was assessed using the LANCE Ultra cAMP detection kit (PerkinElmer). […] For other receptors (5-HT7R, 5-HT1AR, and 5-HT6R), 5-CT was used at 10, 100, and 1000 nM, respectively. Each compound was tested in triplicate across eight concentrations. The inhibitory constant (Kb) for each antagonist was calculated using the Cheng–Prusoff equation.

5-HT7 [1] = biological target: T3, 5-HT7 (Homo sapiens, UniProt P34969); assay: Functional cAMP assay (LANCE Ultra), 5-HT7; assay type: cell-based
T3 construct: expressed in transfected cells; host or cells: HEK293
Description: as §1, §2

CYP2D6 = biological target: T4, CYP2D6 (Homo sapiens, UniProt P10635); assay: P450-Glo assay, CYP2D6; assay type: in vitro ADME
T4 construct: purchased Promega
Text: In order to evaluate excretion, we examined the effect on the activity of two cytochrome P-450 isoforms. Inhibition of their activity may lead to the occurrence of drug–drug interactions.

Danio rerio = conditions: in vivo
Description: Two compounds, PP 10 and PP 15, were tested for cardiotoxicity in the Danio rerio experimental model (OECD 236 test). […]. To assess potential neurotoxic effects, locomotor activity was examined in the Danio rerio model. Zebrafish larvae’s response to light and dark transitions serves as a useful method for detecting neurotoxicity. […] In our experiment, we switched from light to dark conditions, as zebrafish larvae are known to avoid light and seek darker areas. This behavior helps them evade predators and maintain ideal environmental conditions. […]
Figure 4 A: Toxicity of PP 10 and PP 15in vivo in the Danio reiro embryo toxicity test. […] Cardiotoxicity of compounds B: PP 10 and C: PP 15 was evaluated by measuring the heart rate (beats per minute) in 5-dpf Danio rerio larvae, maintained in the E3 fish embryo growth medium. Statistical analysis was performed using GraphPad Prism 10.0.0, with one-way ANOVA followed by Dunnett’s comparison test (*p < 0.05, compared to the negative control E3). […] | The toxicity of compounds was evaluated using two tests: the fish embryo toxicity (FET) test and neurotoxicity assessment.[53] […] Acute toxicity was assessed by monitoring signs such as coagulation of fertilized eggs, somite formation absence, tailbud separation, and lack of heartbeat. The LD50 value was calculated, and cardiovascular effects were monitored through heartbeat observations.

5-HT7 [2] = biological target: T3, 5-HT7; assay: Functional cAMP assay (LANCE Ultra), 5-HT7; assay type: cell-based; conditions: Table 3, unit inferred, agonist mode
[3] = tested on: HSA and AGP in a ratio 24:1; assay: TRANSILXL PPB plasma protein binding assay; conditions: Figures S149, S150
cancer cell lines = assay: Antiproliferative activity over the tested cancer cell lines; assay type: cell-based; conditions: Homo sapiens; range or bound over several cell lines
Description: The chosen group of ligands was further examined for their ability to inhibit proliferation across multiple cancer cell lines related to the CNS system (1321N1, U87MG, LN-229, and U-251). These cell lines were characterized by different mutation profiles, the main one being the variable status of the p53 protein. In detail, U87MG cells have a wild-type p53 protein, while astrocytoma and the rest of GBM cells harbor mutated p53 protein. Additional assays were performed on MCF7 breast cancer and AsPC-1 pancreatic cancer cells. The wide range of tested lines was aimed at screening the anticancer potential of the tested compounds. The first represents one of the most common and the second one of the most aggressive cancers in the world. Comparing the activity of compounds on GBM cells to other types of cancer may reveal their selectivity and usefulness in targeted therapies. The cytotoxicity of the compounds on normal human astrocytes (NHA) and Feline catus astrocyte (PG-4) was determined. Tests on normal lines serve to verify the potential toxicity of the tested compounds on healthy cells. Due to the targeting of CNS tumors, astrocytes were selected as normal lines.
The detailed procedure is presented in previous publications.[53] […] Cell viability was assessed using the MTS assay, and the inhibitory concentration (IC50) was calculated using GraphPad Prism 8.0. […]

T3 sequence (P34969 whole entry, species assumed): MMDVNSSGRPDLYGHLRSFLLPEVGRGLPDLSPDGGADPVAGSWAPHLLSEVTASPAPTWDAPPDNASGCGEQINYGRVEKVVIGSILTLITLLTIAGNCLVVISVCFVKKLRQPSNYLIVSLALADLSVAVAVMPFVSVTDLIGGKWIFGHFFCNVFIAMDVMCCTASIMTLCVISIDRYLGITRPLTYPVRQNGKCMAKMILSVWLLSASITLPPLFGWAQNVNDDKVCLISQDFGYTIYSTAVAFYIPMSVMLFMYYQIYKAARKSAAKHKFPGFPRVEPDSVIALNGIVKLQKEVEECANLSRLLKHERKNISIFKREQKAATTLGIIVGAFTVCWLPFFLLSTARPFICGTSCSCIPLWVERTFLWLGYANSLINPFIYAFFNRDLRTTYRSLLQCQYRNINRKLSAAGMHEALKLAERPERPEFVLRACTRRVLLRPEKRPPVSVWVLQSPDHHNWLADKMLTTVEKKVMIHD
T1 sequence (P50406 whole entry): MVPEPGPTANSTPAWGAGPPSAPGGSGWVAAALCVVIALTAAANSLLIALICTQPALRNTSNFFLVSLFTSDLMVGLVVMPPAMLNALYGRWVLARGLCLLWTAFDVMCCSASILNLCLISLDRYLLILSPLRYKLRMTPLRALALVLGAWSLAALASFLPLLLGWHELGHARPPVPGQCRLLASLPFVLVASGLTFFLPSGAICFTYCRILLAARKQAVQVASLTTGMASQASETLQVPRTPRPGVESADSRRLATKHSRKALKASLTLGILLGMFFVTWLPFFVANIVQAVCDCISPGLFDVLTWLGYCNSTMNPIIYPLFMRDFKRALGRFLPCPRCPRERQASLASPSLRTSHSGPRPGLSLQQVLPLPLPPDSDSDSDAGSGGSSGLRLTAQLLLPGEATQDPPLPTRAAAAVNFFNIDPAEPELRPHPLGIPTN
T2 sequence (P14416 whole entry): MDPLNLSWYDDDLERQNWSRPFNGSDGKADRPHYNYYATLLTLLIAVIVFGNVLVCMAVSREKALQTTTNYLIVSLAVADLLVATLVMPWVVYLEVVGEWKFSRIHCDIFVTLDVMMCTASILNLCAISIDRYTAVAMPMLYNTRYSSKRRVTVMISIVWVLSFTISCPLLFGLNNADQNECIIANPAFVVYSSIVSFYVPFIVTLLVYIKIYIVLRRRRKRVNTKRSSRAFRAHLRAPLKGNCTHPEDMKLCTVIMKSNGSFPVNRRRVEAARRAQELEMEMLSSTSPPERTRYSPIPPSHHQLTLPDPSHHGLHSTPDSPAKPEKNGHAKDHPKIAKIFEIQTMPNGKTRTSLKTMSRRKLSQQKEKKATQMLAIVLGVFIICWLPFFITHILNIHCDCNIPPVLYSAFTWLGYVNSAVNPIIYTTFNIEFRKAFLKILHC
T4 sequence (P10635 whole entry): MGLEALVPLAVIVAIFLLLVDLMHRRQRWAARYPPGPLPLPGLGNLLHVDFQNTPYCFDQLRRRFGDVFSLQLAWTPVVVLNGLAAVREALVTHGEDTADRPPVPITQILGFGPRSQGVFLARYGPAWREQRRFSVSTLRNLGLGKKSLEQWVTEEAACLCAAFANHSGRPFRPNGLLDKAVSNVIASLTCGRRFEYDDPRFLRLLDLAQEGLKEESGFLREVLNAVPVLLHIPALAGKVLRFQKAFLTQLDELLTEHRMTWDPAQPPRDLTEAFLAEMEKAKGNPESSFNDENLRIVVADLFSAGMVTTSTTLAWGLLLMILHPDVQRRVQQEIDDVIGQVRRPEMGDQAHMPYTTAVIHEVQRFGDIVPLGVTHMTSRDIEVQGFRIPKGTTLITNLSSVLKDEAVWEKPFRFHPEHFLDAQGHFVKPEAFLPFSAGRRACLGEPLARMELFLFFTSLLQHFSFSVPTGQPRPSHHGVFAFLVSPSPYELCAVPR

`O=S(=O)(c1cccc2ccccc12)N1CCN(CCNC2=Nc3ccccc3CN2)CC1` [PP 6, N-{2-[4-(Naphthalene-1-sulfonyl)piperazin-1-yl]ethyl}-3,4-dihydroquinazolin-2-amine] was tested, and the EC50 (5-HT6) was 0.367 µM.
For `CC1NC(NCCCCCCNS(=O)(=O)c2cccc3ccccc23)=Nc2ccccc21` (centres unmarked) [PP 10, N-{6-[(4-Methyl-3,4-dihydroquinazolin-2-yl)amino]hexyl}naphthalene-1-sulfonamide], the Kb (D2) was 1.81 µM, the Kb (5-HT7 [1]; Table 3, unit inferred, cAMP, antagonist mode, 5-CT) was 0.236 µM and the “function at 5-HT7” value (5-HT7 [1]; in words) was “antagonist”. For the same molecule, the “impact on the activity of CYP2D6” value (CYP2D6) was “strong effect at a concentration of 1 μM” and the “cardiotoxic effects (heart rate)” value (Danio rerio) was “Neither compound displayed cardiotoxic effects”.
With `CC1NC(NCCCCCCNS(=O)(=O)c2c(Cl)ccc3ccccc23)=Nc2ccccc21` (centres unmarked) [PP 13, 2-Chloro-N-{6-[(4-methyl-3,4-dihydroquinazolin-2-yl)amino]hexyl}naphthalene-1-sulfonamide] the Kb (D2) was 0.858 µM, the EC50 (5-HT6) was 0.488 µM and the EC50 (5-HT7 [2]) was 0.053 µM. For the same molecule, the “amount remaining after incubation with human plasma proteins (UPLC)” value [3] was “COMPOUND NOT DETECTED”.
In the case of `O=S(=O)(NCCCCCCNc1ncc2ccccc2n1)c1cccc2ccccc12` [PP 15, N-{6-[(Quinazolin-2-yl)amino]hexyl}naphthalene-1-sulfonamide], the “impact on the activity of CYP2D6” value (CYP2D6) is reported as “passive” and the “cardiotoxic effects (heart rate)” value (Danio rerio) is reported as “Neither compound displayed cardiotoxic effects”.
`O=S1(=O)c2cccc3cccc(c23)N1CCCCCCNC1=Nc2ccccc2CN1` [PP 24, 3-{6-[(3,4-Dihydroquinazolin-2-yl)amino]hexyl}-2λ^6-thia-3-azatricyclo[6.3.1.0^4,^12]dodeca-1(11),4(12),5,7,9-pentaene-2,2-dione] was tested, and the IC50 (cancer cell lines) was 7.4 to 18.3 µM and the “amount remaining after incubation with human plasma proteins (UPLC)” value [3] was “COMPOUND NOT DETECTED”.
